These are literature values, as cited in patent US20220143046A1, “COMPOSITION AND METHODS FOR RECTAL DELIVERY OF 4-AAPA AND 5-ASA COMPOUNDS” (9 METERS BIOPHARMA, INC., priority 2019, published 2022).

The subject of this series is toxin A-induced colonic inflammation. The note with it: rats; cited from earlier US patents and McVey et al. 2005.

Each structure is given as a SMILES string.

Regarding `O=C(O)Cc1ccc(/N=N/c2ccc(O)c(C(=O)O)c2)cc1` [INN-108, 5-(4-carboxymethyl-phenylazo)-2-hydroxybenzoic acid], the “inhibition of toxin A-induced colonic inflammation” value is recorded as “potent inhibitor”.
